Measurements published in patent US12371434B2, “MLL1 inhibitors and anti-cancer agents” (NOVARTIS AG, priority 2020, dated 2025).

Experiments:
[1] = molecular target: wild type MLL1 five-member complex (MLL1-5C) (Homo sapiens, UniProt Q03164); assay: MLL1 Flashplate assay; format: biochemical; conditions: 2.5 nM MLL1-5C, 0.5 μM 3H-SAM, 1 μM H3K4me0; read-out: MLL1 flash plate
Experimental: MLL1 Flashplate Assay To assess the compound potency in MLL1 Flashplate assay, compounds were serially diluted 3-fold in DMSO to obtain a total of twelve concentrations. Then the test compounds at each concentration (250 nL of each) were transferred by Mosquito into Corning #3675 384-well plate. Solutions (15 μL) of 4.2 nM wild type MLL1 five-member complex (MLL1-5C) in the assay buffer (20 mM Tris-HCl, pH8.0, 0.01% Tween 20, 1 mM DTT, 0.01% BSA) were added to the wells. A 10 μL solution of 2.5 μM of the peptide substrate H3K4me0 (histone H3[1-21]-Biotin) and 1.25 μM ^3H-SAM in the reaction buffer was then added to initiate each reaction. The final components in the reaction solution include 2.5 nM MLL1-5C, 0.5 μM ^3H-SAM, and 1 μM H3K4me0 with varying concentration of the compounds. A positive control consisted of 2.5 nM MLL1-5C, 0.5 μM ^3H-SAM, and 1 μM substrate in the absence of the test compound, and a negative control consisted of 0.5 μM ^3H-SAM, and 1 μM substrate only. Each reaction was incubated at rt for 90 min, then stopped by addition of 5 μL per of quench solution (0.5 mM SAM in assay buffer). 25 μL of each reaction solution was transferred to FlashPlate streptavidin 384-well microplate (PerkinElmer). After at least 1 h incubation at rt, the wells were washed three times with 0.1% Tween-20 in dH2O using the BioTek plate washer. The plates were then read in MicroBeta (PerkinElmer). The radioactive readouts were then normalized based on the values coming from the positive and negative controls to give percent enzyme activities. The data were then fit to a dose response equation using the program Helios to get the IC50 values of the test compounds.

[2] = molecular target: wild type MLL1 four-member complex (MLL1-4C) (Homo sapiens, UniProt Q03164); assay: MLL1 LC-MS assay; format: biochemical; conditions: 30 nM MLL1-4C, 2.5 μM SAM, 10 μM H3K4me0; SAH production by LC-MS/MS; read-out: MLL1 LCMS
Experimental: The compounds of the present disclosure were serially and separately diluted 3-fold in DMSO to obtain a total of eight or twelve concentrations. Then the test compounds at each concentration (120 nL of each) were transferred by Mosquito into white Proxiplate plus 384-well microplate (PerkinElmer). Solutions (6 μL) of 60 nM wild type MLL1 four-member complex (MLL1-4C) and 5 μM SAM in the reaction buffer (20 mM Tris-HCl, pH8.0, 0.01% Tween 20, 1 mM DTT, 10 mM MgCl2, 0.01% BSA) were added to the wells that were then incubated with the test compound for 20 min. A 6 μL solution of 20 μM of the peptide substrate H3K4me0 (histone H3[1-21]-Biotin) in the reaction buffer was added to initiate each reaction. The final components in the reaction solution include 30 nM MLL1-4C, 2.5 μM SAM, and 10 μM H3K4me0 with varying concentration of the compounds. A positive control consisted of 30 nM MLL1-4C, 2.5 μM SAM, and 10 μM substrate in the absence of the test compound, and a negative control consisted of 2.5 μM SAM, and 10 μM substrate only. Each reaction was incubated at rt for 120 min, then stopped by addition of 3 μL per of quench solution (2.5% TFA with 320 nM d4-SAH). The reaction mixture was centrifuged (Eppendorf centrifuge 5810, Rotor A-4-62) for 2 min at 2000 rmp. The SAH production from the enzymatic assays were monitored by LC-MS/MS on an API 4000 triple quadrupole mass spec with TurboIon Spray (Applied Biosystem) coupled with Prominenece UFLC(Shimazu). The level of SAH production were then normalized based on the values coming from the positive and negative controls to give percent enzyme activities. The data were then fit to a dose response equation using the program Helios (Novartis) to get the IC50 values of the test compounds.

H3K4me3 in MV4-11 cells = assay: MV4-11 H3K4Me3 cellular ELISA assay; format: cell-based; conditions: Homo sapiens, 48 hours, H3K4me3 signal normalized to total H3
Experimental: MV4-11H3K4Me3 Cellular ELISA Assay
MV4-11 (ATCC® CRL-9591™) was cultured with RPMI1640 medium (Thermo Fisher Scientific, cat #11875) supplemented with 10% FBS (Thermo Fisher Scientific, cat #10099141) and 50 U/ml Penicillin-Streptomycin (Thermo Fisher Scientific, cat #10378016) in humidified incubator at 37° C., 5% CO2.
200 nL compounds dissolved in DMSO were serially diluted at 1:3 ratio for 12 points starting from 10 mM and dispensed into each wells of cell culture plates (PDL-coated ViewPlate-384 Black, FTC, PerkinElmer, #6007710). 3,750 MV4-11 cells in 40 μL culture medium were seeded into each well and treated with desired concentration for 48 hours. After treatment, wash cells with cold phosphate based buffer (PBS, pH 7.4) and aspirate the remaining PBS buffer. Crude histone lysate was extracted by 40 μL 0.5M HCl for 1 hour in 4° C. following neutralization by adding 32 μL neutralization buffer (0.5M Sodium phosphate dibasic, pH˜12.5, 1.25 mM Dithiothreitol, Promega #V3151, Protease Inhibitor Cocktail, Sigma #8340) for each well. 5 μL and 20 μL of histone lysate was loaded to ELISA plate (384 Well Plates, PE HB, White, 6005620) for detection of total H3 and H3K4me3, respectively. Shake the plates gently in 4° C. for overnight. After histone binding, plates were washed with 80 μL PBS/T (PBS with 0.05% Tween-20) and blocked with 50 μL 3% BSA diluted in PBS/T per well for 1 hour. Incubate wells with primary antibody for 1 hour at room temperature using anti-H3K4me3 (CST #9727) and anti-total H3 (CST #9715) diluted 1:2000 in 3% BSA. Plates were then washed with PBS/T for 3 times and incubated with horseradish peroxidase (HRP) conjugated secondary antibody (CST #7074, 1:5000) for 1 hour at room temperature. The abundance of H3K4me3 and total H3 were measured by ECL substrates chemiluminesce (Pierce, #34080) on a plate reader (PerkinElmer EnVison 2104 Mutilable Reader). Percentage inhibition was calculated against DMSO control after normalization of H3K4me3 signal to H3 signal for individual samples. The data were then fit to a dose response curve using GraphPad Prism for IC50 calculation.

MV4-11 cells = assay: MV4-11 6-day cell growth CTG (CellTiter-Glo) assay; format: cell-based; conditions: Homo sapiens, 144 h, 6 days
Experimental: MV4-11 6-Day Cell Growth CTG (CellTiter-Glo) Assay
Acute myeloid leukemia cell MV4-11 (ATCC® CRL-9591™) was cultured with RPMI 1640 medium (Thermo Fisher Scientific, cat #11875) supplemented with 10% FBS (Thermo Fisher Scientific, cat #10099141) in humidified incubator at 37° C., 5% CO2. To assess the effect of MLL1 inhibition on cell growth, the compound of the present invention was dissolved in DMSO and serially diluted at 1:3 for 12 points starting from 10 mM then 200 nL for the replicate of each dose per well was dispensed to Viewplate-384 Black (Perkin Elmer). Exponentially growing MV4-11 cells were seeded at the density of 300 cells per well in 40 μL to the plate, so the final compound working concentration starts from 50 μM. After 6 days, 40 μL CellTiter-Glo (Promega, cat #G7573) was added into the cell culture well and luminescence was read with Envision (Perkin Elmer) to determine the viable cells. The percentage inhibition was calculated against the samples treated with DMSO only and the data were used for dose response curve fitting in GraphPad Prism to get the IC50 of representative compound of present invention, which reflects the inhibition of MLL1 activity.

SMILES	IC50 [1]	IC50 [2]	IC50 (H3K4me3 in MV4-11 cells)	IC50 (MV4-11 cells)
Nc1ncnc2c(Cc3c(OCCC[C@@H](N)C(=O)NC4CC4)ccc(Cl)c3Cl)cnn12 [Example 37, (R)-2-amino-5-(2-((4-aminopyrazolo[1,5-a][1,3,5]triazin-8-yl)methyl)-3,4-dichlorophenoxy)-N-cyclopropylpentanamide]	> 100 nM	50 to 100 nM	> 3000 nM	–
CCOC(=O)[C@H](N)CCC(C)Oc1ccc(Cl)c(Cl)c1Cn1cnc2c(N)ncnc21 (stereo partly drawn) [Example 30, Ethyl (2R)-2-amino-5-(2-((6-amino-9H-purin-9-yl)methyl)-3,4-dichlorophenoxy)hexanoate]	–	50 to 100 nM	1900 to 3000 nM	< 2000 nM
COC(=O)[C@H](N)CCCOc1ccc(Cl)c(Cl)c1Cc1cnc2c(N)ncnn12 [Example 34, Methyl (R)-2-amino-5-(2-((4-aminoimidazo[2,1-f][1,2,4]triazin-7-yl)methyl)-3,4-dichlorophenoxy)pentanoate]	–	50 to 100 nM	< 1900 nM	< 2000 nM
COc1nc(N)c2ncn(Cc3c(Cl)cc(Cl)cc3OCCC[C@@H](N)C(=O)O)c2n1 [Example 27, (R)-2-amino-5-(2-((6-amino-2-methoxy-9H-purin-9-yl)methyl)-3,5-dichlorophenoxy)pentanoic acid]	–	50 to 100 nM	–	> 3000 nM
COC[C@H](N)CCCOc1cc2ccccc2cc1Cn1cnc2c(N)ncnc21 [Example 21, (R)-9-((3-((4-amino-5-methoxypentyl)oxy)naphthalen-2-yl)methyl)-9H-purin-6-amine]	> 100 nM	50 to 100 nM	> 3000 nM	–
CC(C)COC[C@H](N)CCCOc1ccc(Cl)c(Cl)c1Cc1cnn2c(N)ncnc12 [Example 15, (R)-8-(6-((4-amino-5-isobutoxypentyl)oxy)-2,3-dichlorobenzyl)pyrazolo[1,5-a][1,3,5]triazin-4-amine]	> 100 nM	> 100 nM	–	–
Nc1ncnc2c(Cc3c(OCCC[C@@H](N)CO)ccc(Cl)c3Cl)cnn12 [Example 44, (R)-2-amino-5-(2-((4-aminopyrazolo[1,5-a][1,3,5]triazin-8-yl)methyl)-3,4-dichlorophenoxy)pentan-1-ol]	> 100 nM	> 100 nM	> 3000 nM	–
Nc1ncnc2c1ncn2Cc1c(OCCC[C@@H](N)Cn2cccn2)ccc(Cl)c1Cl [Example 49, (R)-9-(6-((4-amino-5-(1H-pyrazol-1-yl)pentyl)oxy)-2,3-dichlorobenzyl)-9H-purin-6-amine]	–	50 to 100 nM	–	> 3000 nM
NC(=O)[C@H](N)CCCOc1ccc(Cl)c(Cl)c1Cn1cnc2c(N)ncnc21 [Example 39, (R)-2-amino-5-(2-((6-amino-9H-purin-9-yl)methyl)-3,4-dichlorophenoxy)pentanamide]	–	50 to 100 nM	–	< 2000 nM
CCOC[C@H](N)CCCOc1ccc(Cl)c(Cl)c1Cc1cnn2c(N)ncnc12 [Example 16, (R)-8-(6-((4-amino-5-ethoxypentyl)oxy)-2,3-dichlorobenzyl)pyrazolo[1,5-a][1,3,5]triazin-4-amine]	> 100 nM	> 100 nM	> 3000 nM	–
COC(=O)C(N)CCCOc1cc(Cl)cc(Cl)c1Cn1cnc2c(N)ncc(Cl)c21 (centres unmarked) [Example 31, Methyl 2-amino-5-(2-((4-amino-7-chloro-1H-imidazo[4,5-c]pyridin-1-yl)methyl)-3,5-dichlorophenoxy)pentanoate]	–	< 50 nM	–	< 2000 nM
CCOC(=O)[C@H](N)CCCOc1cc(Cl)cc(Cl)c1Cn1cnc2c(N)ncnc21 [Example 32, ethyl (R)-2-amino-5-(2-((6-amino-9H-purin-9-yl)methyl)-3,5-dichlorophenoxy)pentanoate]	–	50 to 100 nM	–	< 2000 nM
COC[C@H](N)CCCOc1ccc(Cl)c(Cl)c1Cc1cnc2c(N)ncnn12 [Example 5, (R)-7-(6-((4-amino-5-methoxypentyl)oxy)-2,3-dichlorobenzyl)imidazo[2,1-f][1,2,4]triazin-4-amine]	> 100 nM	> 100 nM	> 3000 nM	–
CN[C@H](CCCOc1cc(Cl)cc(Br)c1Cn1cnc2c(N)ncnc21)COC [Example 22, (R)-9-(2-bromo-4-chloro-6-((5-methoxy-4-(methylamino)pentyl)oxy)benzyl)-9H-purin-6-amine]	> 100 nM	> 100 nM	–	–
COC[C@H](N)CCCOc1ccc(Cl)c(Cl)c1Cc1cnn2c(N)ncnc12 [Example 8, (R)-8-(6-((4-amino-5-methoxypentyl)oxy)-2,3-dichlorobenzyl)pyrazolo[1,5-a][1,3,5]triazin-4-amine]	> 100 nM	> 100 nM	> 3000 nM	–
Nc1ncnn2c(Cc3c(OCCC[C@@H](N)C(=O)NC4CC4)ccc(Cl)c3Cl)cnc12 [Example 36, (R)-2-amino-5-(2-((4-aminoimidazo[2,1-f][1,2,4]triazin-7-yl)methyl)-3,4-dichlorophenoxy)-N-cyclopropylpentanamide]	< 60 nM	< 50 nM	> 3000 nM	–
